Results on nine compounds are retold here after patent publication US20240174714A1, “TREATMENT OF SKIN DISORDERS” (priority 2021, published 2024).

Series [1] concerns axenic Leishmania donovani MHOM-ET-67/L82 amastigotes. The series is described as follows: In vitro antiprotozoal assay, axenic amastigotes. The series is classed as cell-based.
Experimental: (§1) The testing of the inventive compounds against Leishmania donovani (strain MHOM/ET/67/L82) was performed in 96 well plates at concentrations in serial dilutions. Tests were done in triplicate.
The subject of series [2] is intracellular Leishmania donovani MHOM-ET-67/L82 amastigotes. The series can be described thus: In vitro antiprotozoal assay, intracellular amastigotes. The series is classed as cell-based. As to conditions: intracellular amastigotes; read-out: L.don.InMac IC50.
Experimental: as §1
Series [3] is described as follows: Cytotoxicity assay (Alamar Blue) on L6-cells. The series is classed as cell-based, rat. As to the method: Tests were done in triplicate.
The plates were incubated for additional 2 h.
Background: The colour change of resazurin is a common sign of viable cells or microbes.

Series [4] has as its system Staphylococcus aureus ATCC BAA-1556, USA300 MRSA. The series is described as follows: microbe, parasite or virus in culture. It is filed as cell-based. As to conditions: ATCC BAA-1556. As to the method: Pre-formulated compound solution was diluted in 100% DMSO to prepare a 1.6 mg/mL working stock solution. […] The concentration range was 0.032 to 32 μg/mL.
Setting [5] is: axenic amastigotes, read-out: L.don.ax. IC50.

Structures are written as SMILES. Converted amounts (≈) assume the structure as drawn. Where two headings read alike, the source gives them in different places. Square brackets hold non-standard residues; d marks the D form. Peptide text beside a SMILES is read from it. * marks the point of attachment. Benzoyl(4-CF3) = O=C(c1ccc(C(F)(F)F)cc1)*; NH((S)CH(Me)CH2NMe2) = C[C@@H](CN(C)C)N*; NH(1-CH2NMe2-cBu) = CN(C)CC1(N*)CCC1; dGly(nOct) = CCCCCCCC[C@@H](N)C(=O)O; Gly(octyl) = CCCCCCCC[C@H](N)C(=O)O; Oxazole4CO(2-Me) = Cc1nc(C(=O)*)co1; d(hCha) = N[C@H](CCC1CCCCC1)C(=O)O; Benzoyl(4-F) = O=C(c1ccc(F)cc1)*; hCha = N[C@@H](CCC1CCCCC1)C(=O)O; Aoc(2) = CCCCCC[C@H](N)C(=O)O; X3 = C[C@@H](CN1CCOCC1)N*; X9 = O=C(c1ccc2ocnc2c1)*; Aib = CC(C)(N)C(=O)O; βAla = NCCC(=O)O; tBu = CC(C)(C)*

Usually IC50 stands for the midpoint of a concentration-inhibition curve. Take `CCCCCCCC[C@H](NC(=O)[C@@H]1CCCN1C(=O)c1ccc(C(F)(F)F)cc1)C(=O)N[C@@H](CC(C)C)C(=O)NC(C)(C)C(=O)N[C@@H](CC(C)C)C(=O)N[C@@H](CC(C)C)C(=O)NC(C)(C)C(=O)NC(C)(C)C(=O)NCCC(=O)N[C@@H](C)CN(C)C` [Compound 5936, (2S)-N-[(1S)-1-[(1-{[(1S)-1-{[(1S)-1-{[1-({1-[(2-{[(2S)-1-(dimethylamino)propan-2-yl]carbamoyl}ethyl)carbamoyl]-1-methylethyl}carbamoyl)-1-methylethyl]carbamoyl}-3-methylbutyl]carbamoyl}-3-methylbutyl]carbamoyl}-1-methylethyl)carbamoyl]-3-methylbutyl]-2-{[(2S)-1-[4-(trifluoromethyl)benzoyl]pyrrolidin-2-yl]formamido}decanamide] ({Benzoyl(4-CF3)}-P[Gly(octyl)]L[Aib]LL[Aib][Aib][βAla]-{NH((S)CH(Me)CH2NMe2)}): the IC50 in series [1] (setting [5]) is 3.3 nM; in series [2], below 33.2 nM. Besides, the IC50 at 68 h in series [3] (rat) is 411 nM.

As for `CCCCCCCC[C@H](NC(=O)[C@@H]1CCCN1C(=O)c1ccc2ocnc2c1)C(=O)N[C@@H](CC(C)C)C(=O)NC(C)(C)C(=O)N[C@@H](CC(C)C)C(=O)N[C@@H](CC(C)C)C(=O)NC(C)(C)C(=O)NC(C)(C)C(=O)NCCC(=O)N[C@@H](C)CN(C)C` [Compound 5937, (2S)-2-{[(2S)-1-(1,3-benzoxazole-5-carbonyl)pyrrolidin-2-yl]formamido}-N-[(1S)-1-[(1-{[(1S)-1-{[(1S)-1-{[1-({1-[(2-{[(2S)-1-(dimethylamino)propan-2-yl]carbamoyl}ethyl)carbamoyl]-1-methylethyl}carbamoyl)-1-methylethyl]carbamoyl}-3-methylbutyl]carbamoyl}-3-methylbutyl]carbamoyl}-1-methylethyl)carbamoyl]-3-methylbutyl]decanamide] (X9-P[Gly(octyl)]L[Aib]LL[Aib][Aib][βAla]-{NH((S)CH(Me)CH2NMe2)}), the IC50 in series [1] (setting [5]) came to 21.2 nM; in series [2], 58.5 nM. In addition, inhibition in series [3] (rat) was half-maximal at 1160 nM (IC50 at 68 h).

On to `Cc1nc(C(=O)N2CCC[C@H]2C(=O)N[C@@H](CCC2CCCCC2)C(=O)N[C@@H](CC(C)C)C(=O)NC(C)(C)C(=O)N[C@@H](CC(C)C)C(=O)N[C@@H](CC(C)C)C(=O)NC(C)(C)C(=O)NC(C)(C)C(=O)NCCC(=O)N[C@@H](C)CN2CCOCC2)co1` [Compound 6026, (2S)-2-[(2S)-2-{2-[(2S)-2-[(2S)-4-cyclohexyl-2-{[(2S)-1-(2-methyl-1,3-oxazole-4-carbonyl)pyrrolidin-2-yl]formamido}butanamido]-4-methylpentanamido]-2-methylpropanamido}-4-methylpentanamido]-4-methyl-N-[1-methyl-1-({1-methyl-1-[(2-{[(2S)-1-(morpholin-4-yl)propan-2-yl]carbamoyl}ethyl)carbamoyl]ethyl}carbamoyl)ethyl]pentanamide] ({Oxazole4CO(2-Me)}-P[hCha]L[Aib]LL[Aib][Aib][βAla]-X3), for which the IC50 in series [1] (setting [5]) was 4.2 nM; in series [2] it was 50.7 nM. Half-maximal inhibition in series [3] (rat) (IC50 at 68 h) was put at 1580 nM.

`CC(C)C[C@H](NC(=O)[C@H](CCC1CCCCC1)NC(=O)[C@@H]1CCCN1C(=O)c1ccc(F)cc1)C(=O)NC(C)(C)C(=O)N[C@@H](CC(C)C)C(=O)N[C@@H](CC(C)C)C(=O)NC(C)(C)C(=O)NC(C)(C)C(=O)NCCC(=O)N[C@@H](C)CN1CCOCC1` [Compound 6028, (2S)-2-[(2S)-2-{2-[(2S)-2-[(2S)-4-cyclohexyl-2-{[(2S)-1-(4-fluorobenzoyl)pyrrolidin-2-yl]formamido}butanamido]-4-methylpentanamido]-2-methylpropanamido}-4-methylpentanamido]-4-methyl-N-[1-methyl-1-({1-methyl-1-[(2-{[(2S)-1-(morpholin-4-yl)propan-2-yl]carbamoyl}ethyl)carbamoyl]ethyl}carbamoyl)ethyl]pentanamide] ({Benzoyl(4-F)}-P[hCha]L[Aib]LL[Aib][Aib][βAla]-X3): the IC50 in series [1] (setting [5]) came out at 3.3 nM; in series [2], 418 nM. The compound also registered a half-inhibitory concentration (IC50) at 68 h in series [3] (rat) of 1590 nM.

Consider `Cc1nc(C(=O)N2CCC[C@H]2C(=O)N[C@@H](COC(C)(C)C)C(=O)N[C@@H](CC(C)C)C(=O)NC(C)(C)C(=O)N[C@@H](CC(C)C)C(=O)N[C@@H](CC(C)C)C(=O)NC(C)(C)C(=O)NC(C)(C)C(=O)NCCC(=O)NC2(CN(C)C)CCC2)co1` [Compound 6780, (2S)-2-[(2S)-2-{2-[(2S)-2-[(2S)-3-(tert-butoxy)-2-{[(2S)-1-(2-methyl-1,3-oxazole-4-carbonyl)pyrrolidin-2-yl]formamido}propanamido]-4-methylpentanamido]-2-methylpropanamido}-4-methylpentanamido]-N-{1-[(1-{[2-({1-[(dimethylamino)methyl]cyclobutyl}carbamoyl)ethyl]carbamoyl}-1-methylethyl)carbamoyl]-1-methylethyl}-4-methylpentanamide] ({Oxazole4CO(2-Me)}-PS(tBu)L[Aib]LL[Aib][Aib][βAla]-{NH(1-CH2NMe2-cBu)}), for which the values for the IC50 in series [1] (setting [5]) and in series [2] were 166 nM and 997 nM, respectively. In series [3] (rat), the IC50 at 68 h came to 8750 nM.

In the case of `CCCCCCCC[C@@H](NC(=O)[C@@H]1CCCN1C(=O)c1coc(C)n1)C(=O)N[C@@H](CC(C)C)C(=O)NC(C)(C)C(=O)N[C@@H](CC(C)C)C(=O)N[C@@H](CC(C)C)C(=O)NC(C)(C)C(=O)NC(C)(C)C(=O)NCCC(=O)NC1(CN(C)C)CCC1` [Compound 6789, (2R)-N-[(1S)-1-[(1-{[(1S)-1-{[(1S)-1-({1-[(1-{[2-({1-[(dimethylamino)methyl]cyclobutyl}carbamoyl)ethyl]carbamoyl}-1-methylethyl)carbamoyl]-1-methylethyl}carbamoyl)-3-methylbutyl]carbamoyl}-3-methylbutyl]carbamoyl}-1-methylethyl)carbamoyl]-3-methylbutyl]-2-{[(2S)-1-(2-methyl-1,3-oxazole-4-carbonyl)pyrrolidin-2-yl]formamido}decanamide] ({Oxazole4CO(2-Me)}-P[dGly(nOct)]L[Aib]LL[Aib][Aib][βAla]-{NH(1-CH2NMe2-cBu)}), the values for the IC50 in series [1] (setting [5]) and in series [2] were 3.4 nM and 65 nM, respectively. The compound further displayed an IC50 at 68 h in series [3] (rat) of 4280 nM. In addition, in series [4], the “MIC” value is 16 µg/mL (≈ 13.7 µM).

Consider `CCCCCC[C@H](NC(=O)[C@@H]1CCCN1C(=O)c1coc(C)n1)C(=O)N[C@@H](CC(C)C)C(=O)NC(C)(C)C(=O)N[C@@H](CC(C)C)C(=O)N[C@@H](CC(C)C)C(=O)NC(C)(C)C(=O)NC(C)(C)C(=O)NCCC(=O)NC1(CN(C)C)CCC1` [Compound 6894, (2S)—N-[(1S)-1-[(1-{[(1S)-1-{[(1S)-1-({1-[(1-{[2-({1-[(dimethylamino)methyl]cyclobutyl}carbamoyl)ethyl]carbamoyl}-1-methylethyl)carbamoyl]-1-methylethyl}carbamoyl)-3-methylbutyl]carbamoyl}-3-methylbutyl]carbamoyl}-1-methylethyl)carbamoyl]-3-methylbutyl]-2-{[(2S)-1-(2-methyl-1,3-oxazole-4-carbonyl)pyrrolidin-2-yl]formamido}octanamide] ({Oxazole4CO(2-Me)}-P[Aoc(2)]L[Aib]LL[Aib][Aib][βAla]-{NH(1-CH2NMe2-cBu)}), for which the results for the IC50 in series [1] (setting [5]) and in series [2] were 20.6 nM and 383 nM, respectively. This compound yielded an IC50 at 68 h in series [3] (rat) of 4740 nM.

For the compound `COc1ccc(C[C@H](NC(=O)[C@@H]2CCCN2C(=O)c2coc(C)n2)C(=O)N[C@@H](CC(C)C)C(=O)NC(C)(C)C(=O)N[C@@H](CC(C)C)C(=O)N[C@@H](CC(C)C)C(=O)NC(C)(C)C(=O)NC(C)(C)C(=O)NCCC(=O)NC2(CN(C)C)CCC2)cc1` [Compound 6896, (2S)-N-(1-{[(1S)-1-{[(1S)-1-({1-[(1-{[2-({1-[(dimethylamino)methyl]cyclobutyl}carbamoyl)ethyl]carbamoyl}-1-methylethyl)carbamoyl]-1-methylethyl}carbamoyl)-3-methylbutyl]carbamoyl}-3-methylbutyl]carbamoyl}-1-methylethyl)-2-[(2S)-3-(4-methoxyphenyl)-2-{[(2S)-1-(2-methyl-1,3-oxazole-4-carbonyl)pyrrolidin-2-yl]formamido}propanamido]-4-methylpentanamide] ({Oxazole4CO(2-Me)}-PY(Me)L[Aib]LL[Aib][Aib][βAla]-{NH(1-CH2NMe2-cBu)}), the IC50 in series [1] worked out at 236 nM; in series [2], 1640 nM. In series [3] (rat myoblast L6 cells, read-out: Cytotox L6 IC50), the IC50 at 68 h worked out at 8490 nM.

In the case of `Cc1nc(C(=O)N2CCC[C@@H]2C(=O)N[C@H](CCC2CCCCC2)C(=O)N[C@H](CC(C)C)C(=O)NC(C)(C)C(=O)N[C@H](CC(C)C)C(=O)N[C@H](CC(C)C)C(=O)NC(C)(C)C(=O)NC(C)(C)C(=O)NCCC(=O)NC2(CN(C)C)CCC2)co1` [Compound 7050, (2R)-2-[(2R)-4-cyclohexyl-2-{[(2R)-1-(2-methyl-1,3-oxazole-4-carbonyl)pyrrolidin-2-yl]formamido}butanamido]-N-(1-{[(1R)-1-{[(1R)-1-({1-[(1-{[2-({1-[(dimethylamino)methyl]cyclobutyl}carbamoyl)ethyl]carbamoyl}-1-methylethyl)carbamoyl]-1-methylethyl}carbamoyl)-3-methylbutyl]carbamoyl}-3-methylbutyl]carbamoyl}-1-methylethyl)-4-methylpentanamide] ({Oxazole4CO(2-Me)}-[dP][d(hCha)][dL][Aib][dL][dL][Aib][Aib][βAla]-{NH(1-CH2NMe2-cBu)}), the IC50 in series [1] (setting [5]) was determined as 5.1 nM; in series [2] it was 43.7 nM. This compound returned a concentration for half-maximal inhibition (IC50) at 68 h in series [3] (rat) of 4970 nM.
